{"source": "paper PMC11762957", "about": "“Rescue of Mutant CFTR Channel Activity by Investigational Co-Potentiator Therapy” (Biomedicines, 2025)", "key": {"[1]": {"biological_target": "T1, p.Arg334Trp-CFTR (Homo sapiens, UniProt P13569, R334W)", "T1 construct": "expressed in transfected cells", "T1 sequence (P13569 whole entry R334W)": "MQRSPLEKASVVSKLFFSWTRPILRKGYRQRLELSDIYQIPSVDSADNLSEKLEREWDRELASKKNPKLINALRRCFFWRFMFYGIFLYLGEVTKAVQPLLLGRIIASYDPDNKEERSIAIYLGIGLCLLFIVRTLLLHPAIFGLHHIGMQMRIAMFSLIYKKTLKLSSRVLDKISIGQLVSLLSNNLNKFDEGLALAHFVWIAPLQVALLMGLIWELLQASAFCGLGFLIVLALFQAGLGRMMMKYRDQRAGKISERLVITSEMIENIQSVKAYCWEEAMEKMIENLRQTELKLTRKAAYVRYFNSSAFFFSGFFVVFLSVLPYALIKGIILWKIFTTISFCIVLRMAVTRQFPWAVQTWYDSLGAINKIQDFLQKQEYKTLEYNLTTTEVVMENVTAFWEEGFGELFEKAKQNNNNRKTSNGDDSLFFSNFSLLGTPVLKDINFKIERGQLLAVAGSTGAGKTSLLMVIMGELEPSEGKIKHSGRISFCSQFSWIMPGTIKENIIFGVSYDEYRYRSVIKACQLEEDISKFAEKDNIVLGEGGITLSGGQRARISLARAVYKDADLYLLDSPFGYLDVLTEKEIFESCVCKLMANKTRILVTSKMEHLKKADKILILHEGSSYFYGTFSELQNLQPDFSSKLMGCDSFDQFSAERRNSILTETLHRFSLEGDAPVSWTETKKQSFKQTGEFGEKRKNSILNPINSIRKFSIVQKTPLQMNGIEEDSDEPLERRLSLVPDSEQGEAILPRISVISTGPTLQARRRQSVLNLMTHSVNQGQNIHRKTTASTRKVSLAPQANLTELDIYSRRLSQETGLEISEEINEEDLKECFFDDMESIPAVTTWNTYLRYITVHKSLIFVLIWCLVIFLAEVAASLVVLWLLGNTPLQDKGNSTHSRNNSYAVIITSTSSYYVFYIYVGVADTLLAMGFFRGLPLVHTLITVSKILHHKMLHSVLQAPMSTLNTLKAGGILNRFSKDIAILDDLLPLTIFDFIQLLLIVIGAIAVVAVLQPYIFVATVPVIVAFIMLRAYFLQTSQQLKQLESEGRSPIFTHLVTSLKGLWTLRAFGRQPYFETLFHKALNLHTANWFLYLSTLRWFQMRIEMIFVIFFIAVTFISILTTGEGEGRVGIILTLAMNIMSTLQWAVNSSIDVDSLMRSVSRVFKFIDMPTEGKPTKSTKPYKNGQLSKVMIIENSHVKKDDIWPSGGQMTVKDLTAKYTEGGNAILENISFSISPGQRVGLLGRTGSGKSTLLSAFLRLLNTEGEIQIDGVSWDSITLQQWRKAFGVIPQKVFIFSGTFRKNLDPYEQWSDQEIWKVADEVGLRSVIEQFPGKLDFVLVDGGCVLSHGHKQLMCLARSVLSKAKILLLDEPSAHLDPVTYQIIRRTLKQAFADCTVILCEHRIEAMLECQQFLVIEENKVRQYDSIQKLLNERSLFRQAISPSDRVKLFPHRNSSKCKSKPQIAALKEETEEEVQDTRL", "test": "Micro-Ussing chamber measurements, polarized CFBE41o- monolayers expressing p.Arg334Trp-CFTR", "assay_type": "cell-based", "settings": "after Fsk 0.128 μM", "method": "CFBE41o^− cells expressing p.Arg334Trp-CFTR were seeded onto collagen IV-coated Snap-well filter inserts (#734-1646, Corning, New York, NJ, USA) to establish polarized monolayers. When the transepithelial electrical resistance of cells was ≥1000 Ω·cm^2, micro-Ussing chambers were mounted to measure transepithelial voltage (Vte) and transepithelial resistance (Rte), as noted before. Briefly, after the equilibration period, baseline values were recorded and compounds were added sequentially: Fsk (0.128 μM), test compound(s), and Inh-172 (30 μM). Recorded Vte and Rte were used to calculate the equivalent short-circuit current (Isceq) using Ohm’s law: Isc = Vte/Rte.\nNext, we validated the data obtained by the HS-YFP assay by measuring short-circuit currents in the polarized monolayers of CFBE41o^− cells expressing p.Arg334Trp-CFTR to assess the alterations in the CFTR-mediated Cl^− current. Upon the activation of the cAMP-dependent CFTR-mediated Cl^− transport by Fsk, there was a small lumen-negative response, indicating the residual function of p.Arg334Trp-CFTR (Figure 3A–F)."}, "[2]": {"biological_target": "T2, p.Gly1349Asp-CFTR (Homo sapiens, UniProt P13569, G1349D)", "T2 construct": "expressed in transfected cells; host or cells: CFBE41o- cells stably expressing HS-YFP, transient transfection of pcDNA5-CFTR", "T2 sequence (P13569 whole entry G1349D)": "as the sequence (P13569 whole entry R334W) above, with W334R, G1349D counted along it", "test": "HS-YFP assay, CFBE41o- cells transiently transfected with p.Gly1349Asp-CFTR", "assay_type": "cell-based", "settings": "Fsk 5 μM", "method": "Site-directed mutagenesis was performed using KOD HOT start DNA polymerase (#71086-3, Sigma-Aldrich, St. Louis, MO, USA), according to manufacturer’s instructions, to insert variants under study (c.613C>T or p.Pro205Ser; c.1645A>C or p.Ser549Arg; c.1647T>G or p.Ser549Arg; c.1652G>A or p.Gly551Asp; c.2834C>T or p.Ser945Leu; and c.4046G>A or p.Gly1349Asp) into CFTR cDNA cloned in the pcDNA5 expression vector. After confirmation by Sanger sequencing, CFBE41o^− cells expressing HS-YFP seeded onto 96-well plates were transfected with 0.1 µg per well of the indicated plasmid. Lipofectamine 3000 (#L3000015, ThermoFischer Scientific, Waltham, MA, USA) was used as the transfection agent diluted in Opti-MEM reduced serum medium (#31985070, ThermoFischer Scientific, Waltham, MA, USA) according to manufacturer’s instructions.\nCFTR activity was determined by the HS-YFP microfluorimetric assay (described in detail in previous studies) using CFBE41o^− cells expressing HS-YFP together with stably expressed p.Arg334Trp-CFTR or transiently transfected with CFTR cDNA (variants p.Pro205Ser, p.Ser549Arg, p.Gly551Asp, p.Ser945Leu, and p.Gly1349Asp) cloned into pcDNA5. Briefly, cells were washed with phosphate-buffered saline (PBS; in mM: 137 NaCl, 2.7 KCl, 8.1 Na2HPO4, 1.5 KH2PO4, 1 CaCl2, and 0.5 MgCl2) and then incubated for 30 min at 37 °C with 60 μL of PBS plus Fsk (5 μM) and test compound(s) to stimulate CFTR channels. DMSO (vehicle) and VX-770 (1 μM) were used as negative and positive controls, respectively. All conditions were performed in triplicate on each plate. Thereafter, cells were transferred to a microplate reader (Tecan Infinite 200 Pro) equipped with high-quality excitation (485 ± 20 nm) and emission (535 ± 25 nm) filters for YFP. Each reading consisted of a continuous 14 s fluorescence recording with 2 s before and 12 s after injection of 165 μL of an iodide-containing solution (PBS with Cl^− replaced by I^−; final I^− concentration: 100 mM). Data were normalized to the initial background-subtracted fluorescence. To determine the I^− influx rate, the final 11 s of the data for each well were fitted with an exponential function to extrapolate the initial slope (dF/dt).\nAs CFTR variants with similar defect(s) may respond differently to the same treatment(s), we assessed whether LSO-24 or its derivative LSO-150, alone or in combination(s), could rescue CFTR activity for other variants with gating/conductance defects. […] After 24 h, the cells were acutely stimulated with Fsk plus test compound(s), and the cell fluorescence was recorded before and after the addition of an I^−-containing solution. […]"}}, "data": [{"smiles": "CCOC(=O)c1ccc(-n2cc(C(O)c3ccc(Br)cc3)nn2)cc1", "note": "(stereo not shown) [LSO-150]", "values": [{"measurement": "Isceq, co-administration with VX-770", "setting": "[1]; VX-770 3 μM + LSO-150 3 μM or LSO-153 5 μM, vs single potentiator", "value": "further response"}, {"measurement": "Isceq (equivalent short-circuit current), single potentiator", "setting": "[1]; acute, LSO-150 3 μM, LSO-153 5 μM, VX-770 3 μM, vs DMSO", "value": "increase in Isceq"}, {"measurement": "Fluorescence quenching rate, effect in combination(s) with VX-770 or ABBV-3067", "setting": "[2]; LSO-24 5 μM or LSO-150 3 μM added to VX-770 1 μM or ABBV-3067 10 μM", "value": "no effect"}, {"measurement": "Fluorescence quenching rate, single compound", "setting": "[2]; LSO-24 5 μM, LSO-150 3 μM, VX-770 1 μM, ABBV-3067 10 μM", "value": "no effect"}]}]}
